This is an account of results in publication PMC8457749, “Design, Synthesis, and Anticancer Activity Evaluation of Hybrids of Azoles and Barbituric Acids” (Iranian Journal of Pharmaceutical Research : IJPR, 2021).

As a reminder, the IC50 is the point on the concentration scale where inhibition reaches its midpoint. In general, inhibition refers to how much of the control response was suppressed. As a reminder, the melting point is the temperature, or range, at which the solid turns liquid.

Data set [1] concerns L02 cells. The data set can be described thus: Antiproliferative activity against normal cell line L02. Format: cell-based. To be noted: Homo sapiens, L02, read-out: L02 IC50. On the procedure: The lack of selective cytotoxicity is the main factor that restricts the dose of most conventional chemotherapeutic agents ([21]). […] Selectivity indexes between cancer cells and L02 cells were calculated.

Data set [2] concerns BEL-7402 cells. In words: MTT antiproliferative assay, BEL-7402. Format: cell-based, human. To be noted: for inhibition at 100 µM / IC50: Homo sapiens, Bel-7402, 48 h; for inhibition at 100 µM: read-out: Growth Inhibition at 100 μM (%) BEL-7402; for IC50: read-out: IC50 BEL-7402; for Selectivity index BEL-7402: IC50 on normal cells (L02)/IC50 on tumor cells (BEL-7402). On the procedure: (§1) The antiproliferative activity of the target compounds against the panel of three different human cancer cell lines, liver (BEL-7402), colorectal (HCT-116), and breast (MCF-7) cell lines was evaluated using a standard MTT-based colorimetric assay. All cell lines were obtained from the Key Laboratory of Natural Resources and Functional Molecules of the Changbai Mountain (Yanbian University) and maintained in Dulbecco’s modified Eagle’s medium (DMEM) and RPMI Media 1640 (RPMI1640), supplemented with 10% foetal bovine serum (FBS) at 37 °C in a humidified atmosphere containing 5% CO2.
(§2) The cells were plated in 96-well plates at appropriate densities to ensure exponential growth throughout the experimental period (9 × 10^3 cells per well) and then allowed to adhere for 24 h. the cells were then treated for 48 h with each compound. After 48 h of incubation, 10 μL of MTT solution was added to each well to a final concentration of 2 mg/mL. the plates were then incubated for a further 4 h. After incubation, the MTT solution was removed and 150 μL of DMSO was added to each well for coloration. The plates were shaken vigorously for 10 min at room temperature to ensure complete solubilisation. The optometric density (OD) was read on a microplate reader (EL × 800, BioTek, Highland Park, Winooski, VT, USA) at 492 nm, and the data were subsequently analysed. The percentage of cell growth inhibition was calculated from the following Equation:
(§3) Inhibitory rate (%) = [1 − (ODtreated − ODblank)/(ODcontrol − ODblank)] × 100%
(§4) To obtain the antiproliferative activity of compounds 3a-3s and 4a-4d, the compounds were selected in the same way with four serial concentrations (1, 10, 50 and 100 μM) of those compounds. The optometric density (OD) reading was then used to calculate the IC50.

In data set [3] the test system is HCT-116 cells. In words: MTT antiproliferative assay, HCT-116. The class given is cell-based, human. Conditions: for inhibition at 100 µM / IC50: Homo sapiens, HCT-116, 48 h; for inhibition at 100 µM: read-out: Growth Inhibition at 100 μM (%) HCT-116; for IC50: read-out: IC50 HCT-116; for Selectivity index HCT-116: IC50 on normal cells (L02)/IC50 on tumor cells (HCT-116). On the procedure: as §1, §2, §3, §4
(Tetrazolium assays rely on reduction of a dye to a coloured formazan, in cell work by metabolically active cells.)

For data set [4], the system named is MCF-7 cells. In words: MTT antiproliferative assay, MCF-7. The class given is cell-based, human. Conditions: for inhibition at 100 µM / IC50: Homo sapiens, MCF7, 48 h; for inhibition at 100 µM: read-out: Growth Inhibition at 100 μM (%) MCF-7; for IC50: read-out: IC50 MCF-7; for Selectivity index MCF-7: IC50 on normal cells (L02)/IC50 on tumor cells (MCF-7). On the procedure:
as §1, §2, §3, §4

In turn, `O=C1NC(=O)C(=Cc2cn(-c3ccc(Cl)cc3)nn2)C(=O)N1` [Compound 3g, 5-((1-(4-chlorophenyl)-1H-1,2,3-triazol-4-yl)methylene)pyrimidine-2,4,6(1H,3H,5H)-trione] came in with a melting point of 250 °C. Also, the IC50 in data set [1] came to 80.2 ± 6 µM. Moreover, in data set [2], the inhibition at 100 µM was 46.6 ± 4.6% and the IC50 is over 100 µM. Also, in data set [3], the inhibition at 100 µM turned out to be 68.5 ± 4.6%, the IC50 worked out at 9.59 ± 1.01 µM and the “Selectivity index HCT-116” value amounted to 8.36. Besides, in data set [4], the inhibition at 100 µM turned out to be 23.9 ± 2.9% and the IC50 is over 100 µM.
For `O=C1NC(=O)C(=Cc2cn(-c3cc(Cl)ccc3Cl)nn2)C(=O)N1` [Compound 3h, 5-((1-(2,5-dichlorophenyl)-1H-1,2,3-triazol-4-yl)methylene)pyrimidine-2,4,6(1H,3H,5H)-trione], the melting point worked out at 250 °C. In addition, the IC50 in data set [1] came to 78.8 ± 3.9 µM. For the same molecule, in data set [2], the inhibition at 100 µM is 82.1 ± 3.2%, the IC50 came out at 9.49 ± 1.78 µM and the “Selectivity index BEL-7402” value is given as 8.30. For the same molecule, in data set [3], the inhibition at 100 µM worked out at 81.2 ± 4.2%, the IC50 was 18.9 ± 1.97 µM and the “Selectivity index HCT-116” value is 4.17. Moreover, in data set [4], the inhibition at 100 µM turned out to be 92.2 ± 8.5%, the IC50 was found to be 75.9 ± 1.98 µM and the “Selectivity index MCF-7” value turned out to be 1.04.
`O=C1NC(=O)C(=Cc2cn(-c3cccc(Br)c3)nn2)C(=O)N1` [Compound 3k, 5-((1-(3-bromophenyl)-1H-1,2,3-triazol-4-yl)methylene)pyrimidine-2,4,6(1H,3H,5H)-trione]: the melting point turned out to be 250 °C. For the same molecule, in data set [1], the IC50 amounted to 66.4 ± 5.1 µM. In data set [2], the inhibition at 100 µM turned out to be 81.6 ± 3.6%, the IC50 worked out at 19.2 ± 1.8 µM and the “Selectivity index BEL-7402” value was 3.46. Besides, in data set [3], the inhibition at 100 µM turned out to be 88.9 ± 3.1%, the IC50 is 19.4 ± 1.67 µM and the “Selectivity index HCT-116” value came out at 3.42. In data set [4], the inhibition at 100 µM stood at 31.7 ± 2.8% and the IC50 was over 100 µM.
`O=C1NC(=O)C(=Cc2cn(-c3cccc(F)c3)nn2)C(=O)N1` [Compound 3c, 5-((1-(3-fluorophenyl)-1H-1,2,3-triazol-4-yl)methylene)pyrimidine-2,4,6(1H,3H,5H)-trione]: the melting point was 250 °C. The IC50 in data set [1] came out at 82.3 ± 4 µM. For the same molecule, in data set [2], the inhibition at 100 µM turned out to be 79 ± 3.9%, the IC50 is 12.2 ± 0.91 µM and the “Selectivity index BEL-7402” value is recorded as 6.74. Further, in data set [3], the inhibition at 100 µM was found to be 48.4 ± 2.3% and the IC50 was over 100 µM. Further, in data set [4], the inhibition at 100 µM came out at 34.6 ± 1.8% and the IC50 was over 100 µM.
In the case of `O=C1NC(=O)C(=Cc2cn(-c3ccc(Br)cc3)nn2)C(=O)N1` [Compound 3l, 5-((1-(4-bromophenyl)-1H-1,2,3-triazol-4-yl)methylene)pyrimidine-2,4,6(1H,3H,5H)-trione], the melting point was found to be 250 °C. Further, the inhibition at 100 µM in data set [2] came to 44.8 ± 3.8%. In data set [3], the inhibition at 100 µM worked out at 49.8 ± 3.8%. The inhibition at 100 µM in data set [4] is under 5%.
`Cc1ccc(-n2cc(C=C3C(=O)NC(=O)NC3=O)nn2)cc1` [Compound 3r, 5-((1-p-tolyl-1H-1,2,3-triazol-4-yl)methylene)pyrimidine-2,4,6(1H,3H,5H)-trione] gave a melting point of 250 °C. Moreover, the inhibition at 100 µM in data set [2] was 39.8 ± 3.1%. In data set [3], the inhibition at 100 µM came to 52.5 ± 2%. For the same molecule, in data set [4], the inhibition at 100 µM is under 5%.
Molecule `COc1ccccc1-n1cc(C=C2C(=O)NC(=O)NC2=O)nn1` [Compound 3m, 5-((1-(2-methoxyphenyl)-1H-1,2,3-triazol-4-yl)methylene)pyrimidine-2,4,6(1H,3H,5H)-trione] displayed a melting point of 250 °C. In data set [2], the inhibition at 100 µM came out at 25.6 ± 2.1%. Also, the inhibition at 100 µM in data set [3] was 44.2 ± 3.4%. Also, the inhibition at 100 µM in data set [4] came out at 7.9 ± 1.1%.
The molecule `Cc1cccc(-n2cc(C=C3C(=O)NC(=O)NC3=O)nn2)c1` [Compound 3q, 5-((1-m-tolyl-1H-1,2,3-triazol-4-yl)methylene)pyrimidine-2,4,6(1H,3H,5H)-trione] came in with a melting point of 250 °C. Further, in data set [2], the inhibition at 100 µM amounted to 23.7 ± 2.1% and the IC50 was over 100 µM. Besides, in data set [3], the inhibition at 100 µM was 94.8 ± 6.3% and the IC50 worked out at 32.8 ± 1.9 µM. Moreover, in data set [4], the inhibition at 100 µM came to 91.9 ± 2.4% and the IC50 came out at 29.8 ± 2.01 µM.
As to `COc1ccc(-n2cc(C=C3C(=O)NC(=O)NC3=O)nn2)cc1OC` [Compound 3p, 5-((1-(3,4-dimethoxyphenyl)-1H-1,2,3-triazol-4-yl)methylene)pyrimidine-2,4,6(1H,3H,5H)-trione], the melting point was found to be 250 °C. Besides, the inhibition at 100 µM in data set [2] was determined as 38 ± 1.9%. Besides, the inhibition at 100 µM in data set [3] was 43.9 ± 2.9%. Also, in data set [4], the inhibition at 100 µM came out at 18.6 ± 1.7%.
As for `Cc1nn(-c2cccc(Cl)c2)c(C)c1C=C1C(=O)NC(=O)NC1=O` [Compound 4c, 5-((1-(3-chlorophenyl)-3,5-dimethyl-1H-pyrazol-4-yl)methylene)pyrimidine-2,4,6(1H,3H,5H)-trione], the melting point turned out to be 250 °C. Moreover, in data set [2], the inhibition at 100 µM came out at 64 ± 2.1% and the IC50 worked out at 48.2 ± 0.78 µM. Besides, in data set [3], the inhibition at 100 µM worked out at 58.7 ± 5.2% and the IC50 stood at 47.5 ± 3.21 µM. In addition, in data set [4], the inhibition at 100 µM came out at 15.5 ± 1.1% and the IC50 was over 100 µM.
The molecule `O=C1NC(=O)C(=Cc2cn(-c3ccccc3F)nn2)C(=O)N1` [Compound 3b, 5-((1-(2-fluorophenyl)-1H-1,2,3-triazol-4-yl)methylene)pyrimidine-2,4,6(1H,3H,5H)-trione] came in with a melting point of 250 °C. In addition, in data set [2], the inhibition at 100 µM turned out to be 34.1 ± 4.3% and the IC50 is over 100 µM. In data set [3], the inhibition at 100 µM came to 67.6 ± 3.8% and the IC50 is 78.2 ± 2.34 µM. In addition, in data set [4], the inhibition at 100 µM stood at 27.5 ± 1.6% and the IC50 is over 100 µM.
`O=C1NC(=O)C(=Cc2cn(-c3cccc(Cl)c3)nn2)C(=O)N1` [Compound 3f, 5-((1-(3-chlorophenyl)-1H-1,2,3-triazol-4-yl)methylene)pyrimidine-2,4,6(1H,3H,5H)-trione] came in with a melting point of 250 °C. For the same molecule, the IC50 in data set [1] came to 93.9 ± 5.9 µM. For the same molecule, in data set [2], the inhibition at 100 µM was found to be 75.2 ± 3%, the IC50 stood at 15.9 ± 1.32 µM and the “Selectivity index BEL-7402” value came to 5.89. In data set [3], the inhibition at 100 µM was found to be 79.3 ± 5.6%, the IC50 stood at 14.9 ± 0.55 µM and the “Selectivity index HCT-116” value is 6.28. Moreover, in data set [4], the inhibition at 100 µM amounted to 58 ± 3.2%, the IC50 is 29.1 ± 0.34 µM and the “Selectivity index MCF-7” value was found to be 3.22.
In turn, `Cc1ccc(-n2nc(C)c(C=C3C(=O)NC(=O)NC3=O)c2C)cc1` [Compound 4d, 5-((3,5-dimethyl-1-p-tolyl-1H-pyrazol-4-yl)methylene)pyrimidine-2,4,6(1H,3H,5H)-trione] gave a melting point of 250 °C. For the same molecule, the inhibition at 100 µM in data set [2] was found to be 38.1 ± 1.3%. In addition, the inhibition at 100 µM in data set [3] is 28.4 ± 3%. Besides, in data set [4], the inhibition at 100 µM is under 5%.
For `O=C1NC(=O)C(=Cc2cn(-c3ccccc3)nn2)C(=O)N1` [Compound 3a, 5((1-phenyl-1H-1,2,3-triazol-4-yl)methylene)pyrimidine-2,4,6(1H,3H,5H)-trione], in that order: 250 °C, 54 ± 3.4%, 42.7 ± 2.5% and 30.9 ± 2.6%.
Consider `O=C1NC(=O)C(=Cc2cn(-c3ccc(Cl)c(Cl)c3)nn2)C(=O)N1` [Compound 3i, 5-((1-(3,4-dichlorophenyl)-1H-1,2,3-triazol-4-yl)methylene)pyrimidine-2,4,6(1H,3H,5H)-trione], for which the melting point amounted to 250 °C. In addition, in data set [2], the inhibition at 100 µM was found to be 47.2 ± 4.7% and the IC50 is over 100 µM. In addition, in data set [3], the inhibition at 100 µM turned out to be 69.3 ± 2.9% and the IC50 amounted to 55.2 ± 2.31 µM. For the same molecule, in data set [4], the inhibition at 100 µM turned out to be 14.2 ± 1.5% and the IC50 is over 100 µM.
